The record followed here is ChEMBL document CHEMBL4819153, “l-Hypaphorine and d-hypaphorine: Specific antiacetylcholinesterase activity in rat brain tissue” (Bioorg Med Chem Lett, 2021).

By IC50 is commonly meant the concentration at which inhibition is half-maximal. Low readings indicate greater potency in that assay, high ones weaker potency in that assay.

Data set [1] relates to HaCaT. As to the kind of experiment: Cytotoxicity against human HaCaT cells assessed as reduction in cell viability upto 10000 uM incubated for 48 hrs relative to control. In kind it is cell-based.
Data set [2] deals with T1, Acetylcholinesterase (Rattus norvegicus, UniProt P37136).
T1 sequence (P37136 whole entry): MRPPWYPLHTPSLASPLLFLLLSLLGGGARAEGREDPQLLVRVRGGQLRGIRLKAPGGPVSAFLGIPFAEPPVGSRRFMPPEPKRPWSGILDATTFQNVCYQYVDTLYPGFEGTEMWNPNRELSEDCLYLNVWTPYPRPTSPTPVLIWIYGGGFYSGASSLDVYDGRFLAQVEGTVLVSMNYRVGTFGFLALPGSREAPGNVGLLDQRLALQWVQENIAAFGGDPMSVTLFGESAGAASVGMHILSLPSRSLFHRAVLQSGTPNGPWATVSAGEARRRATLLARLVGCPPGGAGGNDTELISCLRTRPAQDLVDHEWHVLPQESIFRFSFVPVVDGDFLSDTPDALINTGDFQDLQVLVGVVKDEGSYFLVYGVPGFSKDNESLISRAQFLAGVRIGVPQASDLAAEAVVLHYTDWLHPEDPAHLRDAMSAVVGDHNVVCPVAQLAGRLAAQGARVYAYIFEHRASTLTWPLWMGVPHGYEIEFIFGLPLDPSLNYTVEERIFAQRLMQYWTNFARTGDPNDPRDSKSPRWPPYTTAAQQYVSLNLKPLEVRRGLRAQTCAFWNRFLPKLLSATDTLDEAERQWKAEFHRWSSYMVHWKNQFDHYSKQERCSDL
The experiment in a line: Inhibition of AChE in rat brain Hippocampus. It is filed as tissue-based.

Data set [3] in a line: Solubility in water. It is filed as physicochemical. To be noted: buffer.
In data set [4] the target is T1, Acetylcholinesterase. As to the kind of experiment: Inhibition of AChE in rat brain cortex. In kind it is tissue-based.
For data set [5], the system named is HaCaT. As to the kind of experiment: Cytotoxicity against human HaCaT cells assessed as reduction in cell viability upto 10000 uM incubated for 24 hrs relative to control. In kind it is cell-based.
Data set [6] deals with T1, Acetylcholinesterase. As to the kind of experiment: Inhibition of AChE in rat brain Striatum. In kind it is tissue-based.
For data set [7], the target named is T1, Acetylcholinesterase. The experiment in a line: Inhibition of AChE in rat brain Cerebellum. In kind it is tissue-based.
Data set [8] concerns HaCaT. As to the kind of experiment: Cytotoxicity against human HaCaT cells assessed as reduction in cell viability at 10000 uM incubated for 24 hrs relative to control. In kind it is cell-based.
Data set [9] deals with HaCaT. As to the kind of experiment: Cytotoxicity against human HaCaT cells assessed as reduction in cell viability at 5000 to 10000 uM incubated for 48 hrs relative to control. In kind it is cell-based. The settings on record: dose 5000-10000 µM.
Data set [10] concerns HaCaT. As to the kind of experiment: Cytotoxicity against human HaCaT cells assessed as reduction in cell viability incubated for 24 hrs relative to control. It is filed as cell-based.
Data set [11] concerns HaCaT. The experiment in a line: Cytotoxicity against human HaCaT cells assessed as reduction in cell viability incubated for 48 hrs relative to control. It is filed as cell-based.

Regarding `C[N+](C)(C)[C@H](Cc1c[nH]c2ccccc12)C(=O)O.[Cl-]`, the Activity result in data set [1] and in data set [5] was “Non-Toxic” in each case. Further, the IC50 in data set [2] came out at 0.32 µM; in [4], 0.24 µM; in [6], 34.6 µM; in data set [7] it was 19.1 µM. Also, the solubility result in [3] is “Soluble”.

In the case of `C[N+](C)(C)[C@@H](Cc1c[nH]c2ccccc12)C(=O)O.[Cl-]`, the Activity result in data set [1] and in data set [5] was “Non-Toxic” each time. Besides, the IC50 is over 1000 µM in data set [2], over 1000 µM in data set [4], over 1000 µM in [6] and 18.6 µM in [7]. Further, the solubility entry in data set [3] is reported as “Soluble”.

`CN(C)C(=O)Oc1cccc([N+](C)(C)C)c1.[Br-]` [NEOSTIGMINE BROMIDE]: the IC50 in data set [2] is 0.07 µM; in data set [4], 0.65 µM; in [6] it was 3.17 µM; in [7] it was 37.2 µM. Also, the Activity result in data set [8] and in [9] was “Toxic” in each case.

As to `CN(C)/N=N/c1[nH]cnc1C(N)=O` [DACARBAZINE], the Activity in data set [10] worked out at 29.74%; in data set [11] it was 44.46%.
